The melting point is the temperature of the solid-liquid transition.

The molecule `COc1cc(-c2ccccc2C)ccc1C(=O)N1Cc2ccc(C(=O)O)n2Cc2ccccc21` came in with a melting point of 144 to 146 °C.

Consider `CCN(CC)C(=O)n1cc(Cc2ccc(C(=O)NS(=O)(=O)c3ccccc3C)cc2OC)c2cc(C(=O)NCC(C)CC(F)(F)F)ccc21` (stereo not drawn), for which the melting point fell in the range of 153 to 154 °C.

`CCCc1c(Cc2ccc(-c3ccccc3C#N)cc2)c(O)nc2ccnn12`: the melting point came out at 236 °C.

In turn, `COC(=O)N(c1ccccn1)C(C(=O)NC(Cc1ccccc1)C(O)CN1C2CCC(C2)N1C(=O)OC(C)(C)C)C(C)C` (mixture of isomers) gave a melting point of 73 to 77 °C.

Take `Cn1cc(CN2CCCNC2=C[N+](=O)[O-])cn1`: the melting point is 186 to 190 °C.

On to `CCCC(=O)Nc1cnc2cc(F)ccc2c1O`, for which the melting point lay in the range of 306 to 308 °C.

In the case of `Cc1cc(C(=O)O)nn1CC(=O)Nc1ccccc1`, the melting point lay within 273 to 275 °C.

In turn, `N#Cc1cccc(-c2c(C(N)=O)c3n(c2Cl)CCNC3)c1` had a melting point of 151 to 153 °C.

Turning to `CNc1cc(OC)ccc1[N+](=O)[O-]`, the melting point was 107 to 110 °C.

`CC=CN1CC([N+](=O)[O-])=CN(C(C)c2ccc(Cl)nc2)C1(C)N` (stereo not drawn) showed a melting point of 148 to 150 °C.

`CC(=O)OC1CSC(Oc2cccc(-c3cccnc3F)c2)C(OC(C)=O)C1OC(C)=O` (stereo not drawn) registered a melting point of 116 °C.

For the molecule `CCN1CCCC1CNC(=O)c1c(O)c(Cl)cc(Cl)c1OC` (single isomer, unassigned; (-)), the melting point is 48 to 49 °C.

The molecule `N/C(=C1/Sc2ccc(Cl)cc2C1=O)c1ccccc1` returned a melting point of 172 to 173 °C.

Molecule `COC(=O)c1cc(OC)c(C#N)c(OC)c1` had a melting point of 151 to 153 °C.

`O=C(O)c1cnc2cnc3ccccc3n2c1=O`: the melting point was in the range of 216 to 218 °C.

As to `CN=C(NS(=O)(=O)N1CCOCC1)C1=NN(c2ccc(Cl)cc2Cl)C(c2ccccc2)C1` (stereo not drawn), the melting point lay within 161 to 165 °C.

The molecule `C(=Nn1ccnc1N1CCOCC1)c1ccccc1` returned a melting point of 59 to 61 °C.

The molecule `CS(=O)(=O)c1cc(CC(=O)O)cc2c1NC(C(F)(F)F)CC2` (stereo not drawn) displayed a melting point of 124 to 125 °C.

Consider `Cc1ccc(S(=O)(=O)n2c(CCCC(=O)O)cc3nc(Cl)ccc32)cc1`, for which the melting point stood at 172 °C.

Take `CCCCCCCCCCCCCCCCCCCCCC(=O)Nc1ccn(C2OC(CO)C(O)C2O)c(=O)n1` (stereo not drawn): the melting point lay in the range of 141 to 143 °C.

Regarding `C/C(=C\c1ccc(OCCN2CCOCC2)cc1)c1ccc2c(c1)C(C)(C)CCC2(C)C`, the melting point was 107 to 109 °C.

With `CCNC(=O)c1sc(-n2ccc(O)cc2=O)cc1C`, the melting point lay within 183 to 184 °C.

`CC(C)(C)O[C@@H]1C[C@@H](CO)N(S(=O)(=O)c2ccc3ccccc3c2)C1` displayed a melting point of 124 to 125 °C.

The molecule `Cc1nc(NCCN2CCOCC2)c2nc(-c3ccccc3)cc-2[nH]1` had a melting point greater than 280 °C.

The molecule `CCOC(=O)c1cn2c3c(cc(I)cc3c1=O)OC(c1ccccn1)C2` (stereo not drawn) had a melting point of 224 to 225 °C.

With `Nc1cc(Sc2ccc3c(C(=O)Nc4ccc(F)c(C(F)(F)F)c4)cccc3c2)ncn1`, the melting point amounted to 221 °C.

Molecule `C#CC1=CCC2C3CCC4=CC(=O)CCC4C3CCC12C` (stereo not drawn) registered a melting point of 148 to 152 °C.

Regarding `Nc1sc2c(c1C(=O)c1ccc(Br)s1)CCN(Cc1ccccc1)C2`, the melting point lay within 87 to 89 °C.

Molecule `CCOC(=O)CC(=O)c1cccs1` returned a melting point of 143 to 145 °C.

For the molecule `C[C@@H](NC(=O)c1sc(-c2ccc(Cl)cc2)nc1C(F)(F)F)[C@](O)(Cn1cncn1)c1ccc(F)cc1F`, the melting point lay within 78 to 79 °C.

For `Cc1nn(C)c2c1N=CN1CC(C)N=C21` (stereo not drawn), the melting point lay in the range of 115 to 117 °C.

As to `CC(C)(C)OC(=O)N1CCOc2ccc(O)cc2S1(=O)=O`, the melting point was determined as 143 °C.

Take `Cc1noc(-c2c(C)nc(C#Cc3ccccc3)n2C)n1`: the melting point turned out to be 95 °C.

Take `CNC(=O)Cc1ccc(CC(=O)O)cc1`: the melting point fell in the range of 102 to 104 °C.

As to `O=C(Cc1cccnc1)Nc1cccc(-c2ccnc3c(C(=O)c4cccs4)cnn23)c1`, the melting point was greater than 200 °C.

In turn, `COC(=O)CSc1cccc(CN)c1` registered a melting point of 72 °C.

`CN(C)c1ccc(NC(=O)Cn2c(-c3ccc(Br)cc3)nc3cccnc32)cc1`: the melting point lay in the range of 248 to 250 °C.

For the molecule `CSc1ccc(C(=O)COc2ccc(F)cc2F)cc1`, the melting point lay within 70 to 71 °C.

`Clc1ccc(C(Cn2cncn2)OCc2ccccc2Cl)c(Cl)c1` (stereo not drawn) returned a melting point of 106 °C.

As to `COc1ccc2c(=O)n3cccc3oc2c1`, the melting point lay in the range of 128 to 129 °C.

In the case of `O=C(Nc1ccc2c(c1)OC=C1CN(C(=O)OCc3ccccc3)C=CN12)OCc1ccccc1`, the melting point was 118 to 120 °C.

Molecule `CCCCCCCCCCCCCCCCOC(=O)c1cccc([N+](=O)[O-])c1` displayed a melting point of 51 to 53 °C.

Regarding `COc1ccc(C2=NN(C(C)CCC(=O)Nc3ccc(C4=NNC(=O)CC4C)cc3)C(=O)C3CC=CCC23)cc1OC` (stereo not drawn), the melting point is 154 to 157 °C.

As to `C[C@H](CO)Cn1c2ccccc2c2ccccc21`, the melting point was in the range of 80 to 81 °C.

For `CCOC(=O)C(=CC(C)c1ccc(Br)cc1)CC(=O)O` (stereo not drawn), the melting point was determined as 107 °C.

As to `Cc1cc(C(c2ccc(C(c3ccc(O)c(C)c3)c3ccc(O)c(C)c3)cc2)c2ccc(O)c(C)c2)ccc1O`, the melting point worked out at 195 °C.

`O=C1CCC[C@@H](c2ccc(Cl)cc2)N1c1ccccc1` gave a melting point of 77.5 to 80 °C.

As to `CC(C)NS(=O)(=O)c1ccc(-c2ccc3nnn(Cc4ccc5ncccc5c4)c3n2)cc1`, the melting point was in the range of 154 to 156 °C.

In the case of `CCn1nc(-c2c(-c3ccc(F)cc3)nn3ccc(OC)cc23)ccc1=O`, the melting point fell in the range of 179 to 180 °C.

The molecule `O=C(CCN1CCN(c2ccccc2)CC1)c1ccc2oc3ccc(C(=O)CCN4CCN(c5ccccc5)CC4)cc3c(=O)c2c1` gave a melting point of 199 to 201 °C.

`CCSCCc1c(-c2ccccc2)nc(N)n2ncnc12` registered a melting point of 120 to 122 °C.

`O=C1CC(=CN2CCOCC2)Oc2c(O)cccc21` had a melting point of 202 °C.

`CC1(C)CCC2=C(C1=O)C(c1ccc(F)c(Br)c1)C1=C(CCS1)N2` (stereo not drawn) displayed a melting point greater than 270 °C.

With `Cc1c2c(c(-c3ccc(F)cc3)c3c4c(ccc13)OCO4)C(=O)NC2=O`, the melting point is 302 to 304 °C.

As for `Cc1cc(C#N)ccc1N1CCOCC1`, the melting point lay in the range of 85 to 86 °C.

`N=C(NC(=O)Nc1ccccc1[N+](=O)[O-])c1ccccc1`: the melting point was in the range of 144 to 146 °C.

On to `CC(=O)N1CCCN(CC2=Nc3cccc4c(=O)[nH]nc(c34)N2)CC1`, for which the melting point was 191 to 193 °C.

`O=C(NNC(c1ccccc1)(c1ccccc1)c1ccccc1)c1ccccc1` registered a melting point of 130 to 131 °C.

For `CNS(=O)(=O)c1cc(C(=O)c2c(C)[nH]c3ccccc23)ccc1Cl`, the melting point is 246 °C.

In turn, `NS(=O)(=O)NCc1csc2ccccc12` displayed a melting point of 101 °C.

The molecule `CCOC(=O)C(CCO)=C(c1cccc(OC)c1)c1cccc(OC)c1` displayed a melting point of 102 to 104 °C.

On to `COC(=O)C1(CCCCl)Oc2ccccc2CCC1O` (stereo not drawn), for which the melting point is 107 to 109 °C.

`Cc1cc(Cc2cc(C(F)(F)F)cc(C(F)(F)F)c2)ccc1NC(=O)c1cccc(Cl)c1C(=O)NC(C)CS(C)=O` (stereo not drawn): the melting point lay within 162 to 165 °C.

Molecule `CCCCCCCCCCCCCCC[C@H]1O[C@@H]1C(=O)OC` gave a melting point of 54 to 55 °C.

In the case of `CCOC(=O)Cc1cccc(-c2nc(COc3ccc(COc4nn(-c5ccccc5)cc4C=O)cc3OC)c(C)o2)c1`, the melting point is 145 to 146 °C.

On to `Cc1cnc(C)c(Oc2ccc(OCn3cnc(Cl)c3Cl)cc2)n1`, for which the melting point was 84 to 85 °C.

In turn, `COc1cc(OC)cc(N2CCN(C(=S)Nc3cc4c(nc3OC)CCC4)CC2)c1` returned a melting point of 169 to 170 °C.

`C=CCOc1cc2c(cc1C)OC1(CC2(C)C)CC(C)(C)c2cc(OCC=C)c(C)cc2O1` returned a melting point of 98 to 100 °C.

With `N#Cc1c(Cl)c2cc(Cl)cnc2[nH]c1=O`, the melting point stood at 247 °C.

Molecule `O=C(NC1CCCCC1)c1c(O)c2cc(F)ccc2n(Cc2ccccc2)c1=O` came in with a melting point of 130 to 134 °C.

`CN[C@@H]1COc2cc(Cl)ccc2O1` had a melting point of 70 to 71 °C.

In turn, `S=C1N=c2ccc(OCCN3CCC(Cc4ccc(Cl)cc4)CC3)cc2=N1` yielded a melting point of 291 to 293 °C.

With `O=C(c1ccc(Cl)cc1)C(O)(Cn1cncn1)C(Cl)(Cl)Cl` (stereo not drawn), the melting point was in the range of 173 to 174 °C.

For the molecule `Cc1cnc(NC(=O)C(c2ccccc2)c2ccccc2)o1`, the melting point is 166 to 168 °C.

The molecule `Cc1cc(C)c(S(=O)(=O)N2CCCC2c2ccc(F)cc2)c(C)c1` (racemic) gave a melting point of 111 °C.

The molecule `COCCOc1ccc(/C=C/C(=O)O)c(Oc2ccc(C(F)(F)F)cc2Cl)c1` gave a melting point of 166 °C.

Regarding `CCn1cc(C(=O)O)c(=O)c2c(C)c(F)c(N3CCC(N)C3)c(F)c21` (stereo not drawn), the melting point fell in the range of 218 to 220 °C.

For the molecule `CCNc1cccc(NC(=O)COCC)c1C#N`, the melting point lay in the range of 84 to 87 °C.

Molecule `N#CCc1nc2c(s1)Cc1cc(Cl)ccc1-2` yielded a melting point of 134 °C.

`CC(C)CCN1C(=O)C(NC(=O)Oc2ccccc2)C(=O)N(c2ccccc2F)c2ccccc21` (stereo not drawn) yielded a melting point of 226 to 227 °C.

In turn, `CC(=O)ON(C)C(=O)CCc1cc(-c2ccc(Cl)cc2)n(-c2nc3c(Cl)cccc3s2)n1` returned a melting point of 159 to 160 °C.

In turn, `CC(=O)CC(=O)N[C@@H](CC(=O)O)C(=O)O` gave a melting point of 127 to 130 °C.

As to `CC1Cc2cc3c(cc2C(c2ccc([N+](=O)[O-])cc2)=NN1C(=O)Cc1ccccc1)OCO3` (stereo not drawn), the melting point fell in the range of 193 to 195 °C.

Regarding `Cc1nn2c3c1c(=O)[nH]c(=O)n3CC=C2c1cc(Cl)ccc1Cl`, the melting point lay in the range of 205 to 209 °C.

For the molecule `CC(C)(CCCSCCNS(=O)(=O)c1ccc(Cl)cc1)C(=O)O`, the melting point is 107 to 109 °C.

`COc1ccc(C(=O)Nc2ccc(OCCCl)cc2)c(N)c1` registered a melting point of 167 to 168 °C.

`CCCC1=C(Cl)C(=O)c2ccccc2C1=O` had a melting point of 71 to 73 °C.

`CCOC(=O)C(C(C)C)S(=O)(=O)c1ccc(OC)cc1` (stereo not drawn): the melting point was 53 °C.
